Assay results reported in PubChem BioAssay (NCI).
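Step 1: Grow cells in 96-well plates. Step 2: Expose to compound for 48 hours at 5 concentrations. Step 3: Interpolate endpoints linearly; if unreached, use highest concentration. Definition used: TGI = concentration required for complete inhibition of growth.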

Columns and labels:
Assay in all cases: NCI-60 cell line screen, 48 h
[1] = tested on: BT-549 breast
[2] = tested on: 786-0 renal
[3] = tested on: OVCAR-3 ovarian
[4] = tested on: CAKI-1 renal
[5] = tested on: SK-MEL-2 melanoma
[6] = tested on: LOX IMVI melanoma
[7] = tested on: SF-268 CNS
[8] = tested on: M14 melanoma
[9] = tested on: RPMI-8226 leukemia
[10] = tested on: HT29 colon
[11] = tested on: OVCAR-8 ovarian
[12] = tested on: SNB-19 CNS
[13] = tested on: RXF 393 renal
[14] = tested on: KM12 colon
[15] = tested on: DU-145 prostate
[16] = tested on: IGROV1 ovarian
[17] = tested on: SW-620 colon
[18] = tested on: HCT-15 colon
[19] = tested on: HCC-2998 colon
[20] = tested on: SF-539 CNS

SMILES | TGI [1] [µM] | TGI [2] [µM] | TGI [3] [µM] | TGI [4] [µM] | TGI [5] [µM] | TGI [6] [µM] | TGI [7] [µM] | TGI [8] [µM] | TGI [9] [µM] | TGI [10] [µM] | TGI [11] [µM] | TGI [12] [µM] | TGI [13] [µM] | TGI [14] [µM] | TGI [15] [µM] | TGI [16] [µM] | TGI [17] [µM] | TGI [18] [µM] | TGI [19] [µM] | TGI [20] [µM]
Cc1ccc2nc(-c3ccc(-n4c(C)nc(=O)c(-c5ccc(F)cc5)c4C)cc3)sc2c1 | 29.9 | 29.9 | 28.4 | 35.1 | 35.4 | 53.6 | 53.9 | 26.4 | 39.6 | 30.1 | 42.9 | 29.5 | 23.2 | 38.4 | 30 | 31.4 | 57.2 | 34.4 |  | 
CC(=O)OC[C@@H]1[C@H]2CC[C@]3(C)[C@@H](OC(C)=O)CC[C@H]3[C@@H]2CC[C@H]1C1(C)SCCS1 | > 25 | > 25 | > 25 | > 25 |  | > 25 | > 25 | > 25 | > 25 | > 25 | > 25 | > 25 | > 25 | > 25 | > 25 | > 25 | > 25 | > 25 | > 25 | > 25
O=C(O)c1ccc([N+]2=Cn3c(nc4ccccc43)C2)cc1 | > 100 | > 100 | > 100 | > 100 | > 100 | > 100 | > 100 | > 100 | > 100 | > 100 | > 100 | > 100 | > 100 | > 100 | > 100 | > 100 | > 100 | > 100 | > 100 | 
CCOC(=O)CC1(O)CCCCC1(Sc1ccc(C)cc1)Sc1ccc(C)cc1 (stereo not given) | > 100 | > 100 | > 100 | > 100 | 65.9 | > 100 | > 100 | > 100 |  | > 100 | > 100 | > 100 | > 100 | > 100 | > 100 |  | > 100 | > 100 | > 100 | > 100
CCOC(=O)N(c1ccccc1)c1cc(=O)n2ccccc2n1 | > 100 | > 100 | > 100 | > 100 |  | > 100 | > 100 |  | > 100 | > 100 | > 100 | > 100 | > 100 | > 100 | > 100 | > 100 | > 100 | > 100 | > 100 | > 100
CC(=O)OC(C)c1cc2c(s1)C(=O)c1scc(C(C)OC(C)=O)c1C2=O (stereo not given) | 0.426 | 0.461 |  | 5.04 |  | > 100 | 0.504 | 0.238 |  | 3.53 | 0.546 | 0.454 | 1.31 | 0.359 | 0.317 | 2.04 |  | 0.381 | 1.23 | 0.36
Cc1nc2ccccc2c(=O)n1NC(=O)c1ccc([N+](=O)[O-])cc1 | > 100 | > 100 | > 100 |  |  | > 100 | > 100 | > 100 | > 100 | > 100 | > 100 | > 100 | > 100 | > 100 | > 100 | > 100 | > 100 |  | > 100 | > 100
Nc1ccc(N=Nc2ccc(-c3ccc(O)cc3)cc2)c2ccc(S(=O)(=O)O)cc12 | > 100 | > 100 | > 100 | > 100 | > 100 | > 100 | > 100 | > 100 | > 100 | > 100 | > 100 | > 100 | > 100 | > 100 | > 100 | > 100 | > 100 | > 100 |  | > 100
COC(=O)Nc1nc2ccc(S(=O)(=O)n3nnc4ccccc43)cc2[nH]1 | 48.1 | > 100 | > 100 | > 100 | > 100 | > 100 | > 100 | > 100 | > 100 | > 100 | > 100 | > 100 | 36.1 | > 100 | > 100 | > 100 | > 100 | > 100 |  | 24.4
COc1ccc(N=C2C(=Nc3ccc(OC)cc3)N(S(=O)(=O)c3ccccc3)C(=S)N2c2ccccc2)cc1 | > 100 | > 100 | > 100 | > 100 | > 100 |  | > 100 | > 100 | > 100 | > 100 | > 100 | > 100 | > 100 | > 100 | > 100 | > 100 | > 100 | > 100 | > 100 | > 100
CCOC(=O)C1=C(C)OC(=O)[C@@]2(OC)C=C(Cl)[C@@]12C | > 100 | > 100 | > 100 | > 100 |  | > 100 | > 100 | > 100 | > 100 | > 100 | > 100 | > 100 | > 100 | > 100 | > 100 | > 100 | > 100 | > 100 | > 100 | > 100
CSC1=NC(C(N)=O)C(N)N1C (stereo not given) | > 100 | > 100 | > 100 | > 100 | > 100 | > 100 | > 100 | > 100 | > 100 | > 100 | > 100 | > 100 | > 100 | > 100 | > 100 | > 100 | > 100 | > 100 |  | > 100
CCC(=O)N1NC(=O)C(CC)(CC)C1=O | > 100 | > 100 | > 100 | > 100 | > 100 | > 100 | > 100 | > 100 | > 100 | > 100 | > 100 | > 100 | > 100 | > 100 | > 100 | > 100 | > 100 | > 100 | > 100 | 
COC(=O)C1C(OC(=O)C(Cl)(c2ccccc2)c2ccccc2)CC2CCC1N2C (stereo not given) | > 100 | > 100 | > 100 | > 100 |  | > 100 | > 100 | > 100 | > 100 | > 100 | > 100 | > 100 | > 100 | > 100 | > 100 | > 100 | > 100 | > 100 | > 100 | > 100
Oc1ccc2oc3c(O)c4ccccc4cc3c2c1 | 15.3 | 20 | 15.1 | 68.7 | 93 | 21.9 | 21.5 | 21.7 | 3.96 | 48.6 | 16.5 | > 100 | 16.9 | 10.5 | 15.6 | 4.21 | 14.1 | 21.3 |  | 3.91
CCn1c(-c2ccc(F)cc2)nc2c1C(=O)c1ccccc1C2=O | > 100 | > 100 | > 100 |  |  |  | > 100 | > 100 | > 100 | > 100 | > 100 | > 100 | > 100 | > 100 | > 100 | > 100 | > 100 | > 100 | > 100 | > 100
O=[As](O)(O)c1ccc(N=Nc2ccc([As](=O)(O)O)cc2)cc1 | > 100 | > 100 | > 100 | > 100 | > 100 | > 100 | > 100 | > 100 |  | > 100 | > 100 | > 100 | > 100 | > 100 | > 100 | > 100 | > 100 | > 100 |  | 
C=CCn1c(C23CC4CC(CC(C4)C2)C3)n[nH]c1=S | > 100 | > 100 | > 100 |  | > 100 | > 100 | > 100 | > 100 | > 100 | > 100 | > 100 | > 100 | > 100 | > 100 | > 100 | > 100 | > 100 | > 100 | > 100 | > 100
C=CCCCC1SC2=C(CC)CCCN2C1=O (stereo not given) | > 100 | > 100 | > 100 | > 100 | > 100 | > 100 | > 100 | > 100 | > 100 | > 100 | > 100 | > 100 | > 100 | > 100 | > 100 | > 100 | > 100 | > 100 |  | > 100
C1=Nc2sc3c(c2C2=NCCN12)CCCC3 | 28.7 | 34.1 | 32.3 | 31.1 | 20.7 | 28.2 | 52.1 |  | 43.3 | 32.8 | 32.1 | 34.9 | 44.9 | 31.3 | 30.1 | 30.8 | 43.8 | 30.4 | 24.3 | 
O=C1C(c2c(O)[nH]c3ccc(S(=O)(=O)O)cc23)=Nc2ccc(Br)cc21 | > 100 | > 100 | > 100 | > 100 | > 100 | > 100 | > 100 | > 100 | > 100 | > 100 | > 100 | > 100 | > 100 | > 100 | > 100 | > 100 | > 100 | > 100 | > 100 | 
COc1ccc(OC)c(C23CCCC(C2)N(C)CC3)c1 (stereo not given) | > 100 | 85.3 | 46.7 | > 100 | 53 |  | > 100 | 34.1 | 42.2 | 49.1 |  | 49 | 61.2 | 33.5 | 91.9 |  |  | > 100 |  | 
CN1C(=O)N/C(=C\c2ccc(S(=O)(=O)N/N=C\C(O)C(O)C(O)CO)cc2)C1=O (stereo not given) | > 100 | > 100 | > 100 | > 100 | > 100 | > 100 | > 100 | > 100 | > 100 | > 100 | > 100 | > 100 | > 100 | > 100 | > 100 | > 100 | > 100 | > 100 | > 100 | 
Nc1c(-c2nc3ccccc3o2)sc(=S)n1-c1ccc(Cl)cc1 | 76 | 22.9 | 38.1 | 53.4 | 47.8 |  | 33.9 | > 100 | > 100 | > 100 | 30.2 | 39.5 | 66.8 | > 100 | 32.9 | 46.3 |  | > 100 | > 100 | 23.9
COc1cc(=O)n2c3ccccc3n(C)c2c1C#N | > 100 | > 100 | > 100 | > 100 | > 100 |  | > 100 | > 100 | > 100 | > 100 | > 100 | > 100 | > 100 | > 100 | > 100 | > 100 | > 100 | > 100 | > 100 | > 100
Cc1ccc(S(=O)(=O)/N=C(\N)N(C)N=O)cc1 | > 100 | > 100 | > 100 | > 100 | > 100 | > 100 | > 100 | > 100 | > 100 | > 100 | > 100 | > 100 | > 100 | > 100 | > 100 | > 100 | > 100 | > 100 |  | > 100
